In patent US6338963B1, “Use of carbon monoxide dependent guanylyl cyclase modifiers to stimulate neuritogenesis” (NeoTherapeutics, Inc., priority 1994, dated 2002):
Marks after values point to notes of the source that are not given here.

Columns and labels:
TGFβ1 = assay: Summary of effects on growth factor mRNA and protein (Table R): TGFβ1; design: key: ± = mRNA; + = protein; nt = not tested; details: Cultured Cells
From the text: (§1) The constellation of effects of AIT-082 on production of mRNA encoding growth factors and on production of growth factor proteins is shown in Table R. The results summarized in […] show both transcriptional and translational effects on growth factors that are in the categories of neurotrophins, pleiotrophins, members of the S100 family of EF hand calcium binding proteins, and members of the TGFβ superfamily. As indicated, effects have been shown at both the mRNA (transcriptional) and protein (translational) levels.

[1] = Plasma levels of AIT-082 in mice (HPLC); format: in vivo; details: 30 mg/kg i.p., C57BL/6 mice, estimated
Procedure: Adult C57BL/6 mice were administered 30 mg/kg of AIT-082 in saline i.p. The animals were sacrificed by decapitation at […] after administration of AIT-082. Blood was collected in heparinized tubes, mixed and centrifuged at 2000 rpm for 15 minutes. The plasma supernatant was removed and stored at −70° C. until analysis. A high pressure liquid chromatography system was developed for the analytical measurement of AIT-082 in plasma and brain tissue. The assay developed was selective for AIT-082 in the presence of a number of closely related purine molecules. The sensitivity of the method was 0.1 microgram of AIT-082 per ml of plasma and 0.1 microgram of AIT-082 per milligram of brain tissue (wet weight).
The results of these determinations graphically represented in FIG. 1 where plasma levels of AIT-082 are provided at 5, 10, 15, 20, 30, 60, 90, and 120 minutes after administration of 30 mg/kg i.p. to C57BL/6 mice. From the data, it was estimated that the blood level of AIT-082 reached its peak at approximately 15 minutes.

Swiss Webster mice = assay: Win-shift T-maze memory test, Swiss Webster mice; format: in vivo; details: for Win-shift Memory Test, Correct responses: 90-second inter-trial interval
Procedure: Male Swiss Webster mice six months (young adult) and eleven months (old) of age, obtained from the National Institute on Aging, were maintained in individual cages, on a […] light/dark cycle with continuous access to water. Food was limited so that the mice stabilized at 80% of free feeding weight. Mice were weighed and handled daily for one week. The win-shift model was run as described in the literature and consists of a T-maze in which the correct response alternates after each correct trial. The interval between trials is varied and allows for the determination of the longest period between trials that a subject can remember the correct response on the previous trial. This allows the measure of the duration of the memory trace. […] The reward goal box is alternated after each correct trial. Ten trials per mouse are run each day. […] The latency time to leave the start box is recorded as a measure of motivation, the running time (the time from leaving the start box to reaching the goal box) is recorded as a measure of performance, and the number of correct responses as a measure of memory.
The drugs used in this example are 4-((3-(1,6-dihydro-6-oxo-9-purin-9-yl)-1-oxopropyl)amino) benzoic acid (AIT-082), as an exemplary potassium salt, tacrine hydrochloride (tetrahydroaminoacridine, THA, Sigma Chemical Co., St. Louis, Mo.), and physostigmine, hemisulfate salt (PHY, Sigma Chemical Co., St. Louis, Mo.). The drugs were dissolved in saline and prepared fresh daily. All injections were made at a volume of 0.1 ml/10 grams body weight. When testing drug effects, intraperitoneal (i.p.) injections of AIT-082 or THA were made one hour prior to the start of testing. Due to its shorter duration of action, PHY was injected 30 minutes prior to testing. Control subjects receive a similar injection of saline (vehicle).
To determine the duration of the memory trace, subjects were administered drug or saline and 30 minutes (PHY) or 1 hour (AIT-082 or THA) later they were given a single reference run with the milk reward in both goal boxes. After the indicated inter-trial delay, subjects were returned to the start box and given the first test trial with the milk reward only in the goal box opposite to the one entered on the previous correct trial. The subjects were given 10 trials with the reward alternating only after correct responses.
To determine if tolerance to the biological effects of AIT-082 developed, drug or saline was administered daily for 18 days prior to the testing in the standard win-shift paradigm.

rat striatum = assay: MRI of rat striatum injected with NMDA; format: in vivo
Procedure: T-2 weighted MRI photos of transverse brain 3-mm thick slices were performed (TR/TE=7400/115 ms; matrix 483×1024; FLV 250). Magnetic resonance images were acquired using 1.5 T scanner (Vision, Siemens-Erlangen). […] All animals survived the surgery and continued to receive treatment for an additional three days, at which time they were sacrificed and tissues were collected as described above.

bFGF = assay: Summary of effects on growth factor mRNA and protein (Table R): bFGF; design: key: ± = mRNA; + = protein; nt = not tested
From the text: as §1

mice [2] = assay: Home cage locomotor activity; format: in vivo
Procedure: To measure home cage locomotor activity, the home cage was placed on a platform of an activity monitor (Stoelting Instruments). Home cage locomotor activity movements were recorded at one minute intervals for 15 minutes. Subjects received saline or AIT-082 and were returned to their home cages. Ten minutes after injection, the home cage was replaced on the platform of the activity monitor. Home cage locomotor activity movements were recorded at one minute intervals for 30 minutes. During the first five minutes, grooming activity was also monitored and recorded.

mice [3] = assay: Elevated Plus maze (anxiety); format: in vivo
From the text: A Plus maze was constructed of black plexiglass consisting of two opposite-facing open arms (30×5 cm, L×W) and two opposite facing closed arms (30×5×15 cm, L×W×H). The walls of the closed arms were clear plexiglass and the four arms were connected by a central area 5×5 cm. The entire Plus maze was mounted on a base 38 cm above the floor. Testing consisted of placing the subject at one end of one of the open arms. The time the subject took to leave the start position (the first 10 cm of the open arm) was recorded. The time it took for the subject to enter halfway into one of the closed arms was also recorded. When the subject arrived at the half-way point in the closed arm, the three-minute test session began. During the three-minute test session, the number of times the subject entered the open arms was recorded. An entry was defined as placing at least two paws onto the platform of the open arm.

Q: Which “TGFβ1, effect on mRNA/protein production” value (TGFβ1) does the source give for `O=C(CCn1cnc2c(=O)[nH]cnc21)Nc1ccc(C(=O)O)cc1` [AIT-082, N-4-carboxyphenyl-3-(6-oxohydropurin-9-yl)propanamide] here?
A: +

Q: And the “time at which blood level of AIT-082 reached its peak” value [1]?
A: approximately 15 minutes

Q: And the “Win-shift Memory Test, Correct responses” value (Swiss Webster mice; AIT-082 0.5 mg/kg i.p.)?
A: 6.5* Correct responses/10 trials

Q: What about the “Win-shift Memory Test, Correct responses” value (Swiss Webster mice; AIT-082 30.0 mg/kg i.p.) of the same molecule?
A: 8.2* Correct responses/10 trials

Q: What about the Tolerance (Swiss Webster mice; AIT-082 30.0 mg/kg daily for 18 days prior to win-shift testing) of the same molecule?
A: 7.6* Correct responses/10 trials

Q: What about the onset of action (Swiss Webster mice; data not shown) of the same molecule?
A: 1 h

Q: And the duration of action (Swiss Webster mice; single dose of 60 mg/kg)?
A: more than seven days

Q: And the “MRI brightness of the lesion” value (rat striatum; AIT locally co-injected with NMDA)?
A: disappeared

Q: And the “MRI brightness of the lesion” value (rat striatum; systemic (intraperitoneal) AIT-082 60 mg/kg)?
A: significantly reduced

Q: What about the “bFGF, effect on mRNA/protein production” value (bFGF; Aged Brain) of the same molecule?
A: ±

Q: What about the “bFGF, effect on mRNA/protein production” value (bFGF; Lesioned Brain) of the same molecule?
A: ±

Q: And the “Locomotor activity, Movements (mean ± S.D.) Post-drug” value (mice [2]; AIT dose 0.005 mg/kg)?
A: 1375 ± 563

Q: What about the “Locomotor activity, Movements (mean ± S.D.) Difference” value (mice [2]; AIT dose 0.005 mg/kg, pre-drug minus post-drug) of the same molecule?
A: 509 ± 429

Q: And the “Locomotor activity, Movements (mean ± S.D.) Difference” value (mice [2]; AIT dose 0.05 mg/kg)?
A: 209 ± 340

Q: What about the “Locomotor activity, Movements (mean ± S.D.) Post-drug” value (mice [2]; AIT dose 0.05 mg/kg) of the same molecule?
A: 1508 ± 456

Q: And the “Locomotor activity, Movements (mean ± S.D.) Difference” value (mice [2]; AIT dose 0.5 mg/kg)?
A: 290 ± 435

Q: What about the “Locomotor activity, Movements (mean ± S.D.) Post-drug” value (mice [2]; AIT dose 0.5 mg/kg) of the same molecule?
A: 1320 ± 689

Q: And the “Locomotor activity, Movements (mean ± S.D.) Difference” value (mice [2]; AIT dose 30.0 mg/kg)?
A: 342 ± 267

Q: What about the “Locomotor activity, Movements (mean ± S.D.) Post-drug” value (mice [2]; AIT dose 30.0 mg/kg) of the same molecule?
A: 1098 ± 189

Q: And the “anxiogenic effect in Plus maze” value (mice [3]; 0.005 to 0.5 mg/kg)?
A: not observed

Q: And the “anxiogenic effect in Plus maze” value (mice [3]; 30 mg/kg)?
A: slight anxiogenic effect

Q: What about the “anxiogenic effect in Plus maze” value (mice [3]; 60 mg/kg) of the same molecule?
A: not observed
